Experimental data: patent US9119805B2, “Therapy and prevention of problem drinking” (THE UNIVERSITY OF SYDNEY, priority 2009, dated 2015)
“Also recorded” adds a separate entry of the source.

Tests used:
Male Wistar rats [1] = test: Social interaction test after oxytocin pre-treatment (Example 3); type: in vivo, rat
Method: (§1) Male Wistar rats (n=48) were obtained from the Animal Resource Centre (ARC), Perth, Western Australia, Australia. The animals were of early adolescent age (i.e., 21 days-old) on arrival and were young adults (i.e., 33 days-old) when oxytocin therapy commenced. The animals were housed and maintained as described in the preceding examples, except that animals were moved to individual housing during chronic exposure to alcohol.
(§2) One-half of the rats (n=24) were administered 10 injections of 1 mg/kg oxytocin (1×I/P injection per day for a total of 10 days). The other half of the rats (n=24) received equivalent injections of placebo/vehicle lacking oxytocin.
At 7 days following final injection of oxytocin, all rats were tested in an emergence test of anxiety. This 5 min test measures the willingness of rats to leave a small dark hide box and emerge into a brightly lit open field. Rats normally avoid brightly lit and open spaces. Three days later, the animals were tested in social interaction tests which measure the willingness of rats to engage in social behavior during a 10 min session in a darkened arena where they meet an unknown rat that has received the same drug treatment.

[2] = test system: alcohol-dependent adults and non-dependent problem drinkers; test: Human Study 1: intranasal oxytocin, stress and alcohol-related cues; type: in vivo; conditions: during presentation of stress and alcohol cues, versus placebo
Method: The underlying mechanisms of intranasal oxytocin during exposure to stress and alcohol related cues in adult alcohol-dependent and adult non-dependent problem drinkers are determined.
In particular, at least twenty male and female adults reporting alcohol dependence according to the Diagnostic and Statistical Manual of Mental Disorders, Fourth Edition (DSM-IV) as determined by the Structured Clinical Interview for the DSM-IV (SCID-IV) are recruited from the community to participate in a laboratory based investigation on the role of oxytocin in stress-related alcohol craving. […]
Subjects returning to the Brain and Mind Research Institute on the afternoon of the final day of testing are evaluated. Bloods and saliva are taken, and plasma oxytocin and cortisol levels and saliva cortisol are determined and compared to baseline levels before commencement of therapy. […] Changes in mood, drinking behavior and neuropsychology are evaluated for both groups by comparison with baseline evaluations. Changes in smoking behavior are evaluated by FTND testing and comparison with baseline evaluations. HR and BP records over the period and at cessation are also determined and compared to baseline levels before commencement of therapy. […]

Male Wistar rats [3] = test: Home-cage free access to 4.5% ethanol beer after oxytocin prophylaxis (Example 3, FIGS. 5-7); type: in vivo, rat
Method: as §1, §2
A subset of the treated rats (n=8 per condition) were exposed to alcohol in the lickometer apparatus over a 10 day period. On the first day of testing, animals were exposed to a 70 min session in the lickometer during which a low-alcohol near-beer was provided at both lick tubes (Birell's Premium, containing 0.5% alcohol). On subsequent days, animals were exposed to further 70 min test sessions during which near-beer supplemented with increasing amounts of absolute ethanol were provided at both lick tubes i.e., to produce a beer comprising 1.5%, 2.5%, 3.5% and finally 4.5% ethanol. The concentration of ethanol was then maintained at 4.5% for all subsequent testing.
After 9 days of lickometer testing, the rats were given free access to 4.5% ethanol containing beer for a 24-day period in their home cages. Standard rat chow and tap water were also available in the home cages. Alcohol intakes and body weights were measured daily.

P rats = test: Lickometer alcohol preference in alcohol-naïve P rats pre-treated with 10 daily oxytocin injections (Example 2); type: in vivo, rat
Method: P rats (8 female and 6 male P rats) of adult age (i.e., 150 days) were used in this study. Animals were maintained as described in example 1, however they received no alcohol prior to testing.
One-half of the rats (n=4 female and n=3 male) were given 10 injections of 1 mg/kg oxytocin (a single I/P injection per day for a total of 10 days). The other half of the rats received equivalent injections of placebo/vehicle lacking oxytocin. Two weeks later, the alcohol preferences of both sets of alcohol-naïve animals were tested. The same alcohol and alcohol-free solutions were employed as in example 1, and testing conditions were in the same lickometer apparatus. Testing in the lickometer (1×70 min session per day) continued for a total of 10 days during which time intake of sucrose and Vodka Cruiser were measured.

[4] = 10 minute social interaction test, versus vehicle
[5] = FIG. 6 panel A, start of exposure

CC[C@H](C)[C@@H]1NC(=O)[C@H](Cc2ccc(O)cc2)NC(=O)[C@@H](N)CSSC[C@@H](C(=O)N2CCC[C@H]2C(=O)N[C@@H](CC(C)C)C(=O)NCC(N)=O)NC(=O)[C@H](CC(N)=O)NC(=O)[C@H](CCC(N)=O)NC1=O [oxytocin]
number of social contacts (Male Wistar rats [1]; [4]): significantly higher numbers of social contacts; also recorded: increased numbers of social contacts
proximal time (time within one and half body lengths of another rat) (Male Wistar rats [1]; [4]): significantly higher; also recorded: increased time spent in close proximity
social anxiety (Male Wistar rats [1]; test animals after oxytocin therapy): decreased social anxiety
anxiety and stress [2]: lower
subjective craving for alcohol [2]: lower
average daily intake of full strength beer (Male Wistar rats [3]; FIG. 5, final oxytocin injection about 30 days before exposure to alcohol, versus placebo): significantly reduced alcohol consumption; also recorded: consistently less alcohol intake
consumption of water (Male Wistar rats [3]; FIG. 6, same period): did not significantly modify consumption of water; also recorded: unchanged
escalation of alcohol consumption / alcohol intake (Male Wistar rats [3]; FIG. 6, 10 daily IP injections ending about 21 days before 24 days beer exposure, versus saline vehicle): significantly reduced an escalation of alcohol consumption; also recorded: consistently less alcohol intake
ethanol consumption after marginal increase (Male Wistar rats [3]; FIG. 6 panel A, over 24 days): 10-10.8 g/kg of pure ethanol per day
initial beer consumption (Male Wistar rats [3]; [5]): about 110 ml of beer per day
initial ethanol consumption (Male Wistar rats [3]; [5]): about 9 g/kg of pure ethanol per day
reduction of initial alcohol consumption (Male Wistar rats [3]; FIG. 6 panel A, versus animals without oxytocin): about 10%
total consumption of full strength beer (Male Wistar rats [3]; FIG. 7 panel A, final week of the experiment, versus saline vehicle): significantly reduced later consumption of alcohol
total water consumption (Male Wistar rats [3]; FIG. 7 panel B, final week): no significant difference in total water consumption
alcohol consumed with free access to full strength beer in home cages (Male Wistar rats [3]; FIGS. 5-7, versus placebo): consumed consistently less alcohol
body weight and food intake (Male Wistar rats [3]; oxytocin pre-treated rats versus controls, FIG. 5 experiment): same body weight and food intake as controls
general health (Male Wistar rats [3]; oxytocin pre-treated rats, FIG. 5 experiment): appeared healthy
alcohol intake and preference for alcohol (P rats; alcohol-naïve P rats, both sexes, repeated doses): reduced alcohol intake and preference for alcohol; also recorded: reduced significantly
preference for Vodka Cruiser versus 3% sucrose solution (P rats; male alcohol-naïve P rats, 10 x 1 mg/kg/day, final 4 days of testing): significantly reduced preference for Cruiser over sucrose
intake of sucrose (P rats; male oxytocin-treated rats relative to both female groups): higher
intake of Cruiser (alcohol) (P rats; male oxytocin-treated rats versus the other groups): less intake of alcohol; also recorded: lower
reduced acquisition of alcohol preference, comparison between the sexes (P rats; males compared to females): greater in males compared to females
